Experimental findings from patent US20230167142A1, “METHODS FOR THE MONO-AMIDATION OF PHOSPHATES AND PHOSPHONATES” (Board of Regents, The University of Texas System, priority 2020, published 2023) are described below.

Like-named read-outs stand apart in the source and are kept apart here.

What all share (type): cell-based
For experiment [1], the system named is ENO1-deleted (D423) glioma cells. Kind of experiment: Crystal violet cell proliferation assay, ENO1-deleted D423 cells. Particulars: for IC50: Glioma cell. As for the experimental part: (§1) FIGS. 1A, 1B, 1C, and 1D show cell proliferation assays for enolase inhibitors HEX (1A), FLM37 (1B), CDP18 (1C), and VCY32 (1D) against (i) ENO1-deleted (D423), (ii) ENO1-rescued (D423 ENO1), and (iii) ENO1-wildtype (LN319) glioma cells. Cells were incubated with pro-drug inhibitor for 5 days. Then, cells were fixed and stained with crystal violet and quantified spectroscopically. Numerical labels indicate concentration of enolase inhibitor in nM.
(§2) FIGS. 2A, 2B, and 2C show plots of relative cell density (vertical axis) against concentration (horizontal axis, nM) of enolase inhibitors FLM37 (2A), CDP18 (2B), and VCY32 (2C) for (i) ENO1-deleted (D423), (ii) ENO1-rescued (D423 ENO1), and (iii) ENO1-wildtype (LN319) glioma cells.
(§3) Numerical labels indicate concentration of enolase inhibitor in nM.
(§4) See, Leonard et al. (2016) Nat. Chem. Biol. 12:1053-1058 and Satani et al. (2016) PLos One, 11:e0168739, each of which is incorporated by reference for all purposes. Then, cells were fixed and stained with crystal violet and quantified spectroscopically. Cell density as measured by crystal violet were plotted as a function of inhibitor.
(§5) FIGS. 1A, 1B, 1C, and 1D show representative cell proliferation assays for the compounds HEX (1A), FLM37 (1B), CDP18 (1C), and VCY32 (1D). For each compound, assays are run against (i) ENO1-deleted (D423), (ii) ENO1-rescued (D423 ENO1), and (iii) ENO1-wildtype (LN319) glioma cells.

Experiment [2] has as its system ENO1-wildtype (LN319) glioma cells. The experiment in a line: Crystal violet cell proliferation assay, ENO1-wildtype LN319 cells. Particulars: for activity in cell proliferation assay (FIG. 1): 5 days. As for the experimental part:
as §1, §2, §3, §4, §5

Experiment [3] has as its system ENO1-rescued (D423 ENO1) glioma cells. Kind of experiment: cells. Conditions: for activity in cell proliferation assay (FIG. 1): 5 days. As for the experimental part:
as §1, §2, §4, §5

Setting [4] is: ENO1-deleted (D423), read-out: IC50,D423 (ENO1−/−).
Where [5] appears, read: LN-319, ENO1-wildtype (LN319), read-out: IC50, LN319 (ENO1+/+).
Setting [6] is: Glioma cell, footnote, experiment with VCY32, read-out: IC50 in reference to respective POMHEX control.
The mark [7] stands for this setting: Glioma cell, table of Formula V compounds, R6 = POM, read-out: IC50, D423 EN01 (ENO1 +/+).
[8] abbreviates: table of Formula V compounds, R6 = POM, read-out: IC50, D423 EN01 (ENO1 +/+).

For `CCCCCCCCCCCCNP(=O)(O)C1CCCN(O)C1=O` (stereo not drawn) [CDP22, N-dodecyl-P-(1-hydroxy-2-oxopiperidin-3-yl)phosphonamidic acid], in experiment [1] (ENO1-deleted (D423)), the “level of inhibition of ENO1-deleted (D423) cells (FIG. 3), in words” value is recorded as “sub-micromolar levels”. For the same molecule, the IC50 came out at 58 nM in experiment [1] (setting [4]); 844 nM in experiment [2] (setting [5]); 24 nM in experiment [2] (LN-319, text b400, read-out: IC50 values for ENO1-wildtype (LN319) glioma cells (i) (FIGS. 4A, 4B)). Moreover, the “inhibition / activity in ENO1-wildtype (LN319) cells (FIG. 3)” value in experiment [2] (ENO1-wildtype (LN319)) is on record as “shows activity”.

Turning to `CC(C)(C)C(=O)OCOP(=O)(NCC1CC1)C1CCCN(O)C1=O` (stereo not drawn) [VCY32, ((((Cyclopropylmethyl)amino)(1-hydroxy-2-oxopiperidin-3-yl)phosphoryl)oxy)methyl pivalate], the “activity in cell proliferation assay (FIG. 1)” value (“activity … (FIG. 1)” for short) in experiment [1] (ENO1-deleted (D423), 5 days) was “activity at the micromolar range or better”; in experiment [3] (ENO1-rescued (D423 ENO1)), “activity at the micromolar range or better”; in experiment [2] (ENO1-wildtype (LN319)), “activity at the micromolar range or better”. Moreover, the IC50 in experiment [3] (setting [6]) and in experiment [3] (setting [7]) was 22 nM throughout.

Regarding `CN(C)P(=O)(OCOC(=O)C(C)(C)C)C1CCCN(O)C1=O` (stereo not drawn) [CDP21, (((dimethylamino)(1-hydroxy-2-oxopiperidin-3-yl)phosphoryl)oxy)methyl pivalate], the “selectivity for ENO1-deleted cells” value in experiment [1] is listed as “selective for ENO1-deleted cells”. Moreover, the IC50 in experiment [1] (120 h) turned out to be 108 nM; in experiment [1] (read-out: IC50,D423 (ENO1−/−)), 108 nM; in experiment [3] (Glioma cell, read-out: IC50, D423 EN01 (ENO1 +/+)), 115 nM; in experiment [3] (Glioma cell, read-out: IC50,D423 ENO1 (ENO1+/+)) it was 2170 nM; in experiment [2] (LN-319, read-out: IC50, LN319 (ENO1+/+)), 5060 nM.

Consider `CC(C)(C)C(=O)OCOP(=O)(NCc1cccc(F)c1)C1CCCN(O)C1=O` (stereo not drawn) [CDP12, ((((3-fluorobenzyl)amino)(1-hydroxy-2-oxopiperidin-3-yl)phosphoryl)oxy)methyl pivalate], for which the IC50 in experiment [3] (setting [7]) was 103 nM.

In the case of `CC(C)(C)C(=O)OCOP(=O)(NCc1ccccn1)C1CCCN(O)C1=O` (stereo not drawn) [KY9, (((1-hydroxy-2-oxopiperidin-3-yl){(pyridin-2-ylmethyl)amino)phosphoryl)oxy)methyl pivalate], the IC50 in experiment [3] (setting [7]) came to 96.2 nM.

Regarding `CC(C)(C)C(=O)OCOP(=O)(NCc1ccc(F)cc1)C1CCCN(O)C1=O` (stereo not drawn) [VCY19, ((((4-fluorobenzyl)amino)(1-hydroxy-2-oxopiperidin-3-yl)phosphoryl)oxy)methyl pivalate], the IC50 in experiment [3] (setting [7]) stood at 129 nM.

With “((((3,4-difluornhenzyl)amino)(1-hydro:xy-2-oxopiperidin-3-yl)phosphoryl)oxy)methyl pivalate [CDP13]”, the IC50 in experiment [3] (setting [8]) turned out to be 84.6 nM.

In the case of “((((Cyclohexylmethyl)amino)(1-hydro:xy-2-oxopiperidin-3-yl)phosphoryl)oxy)methyl pivalate [CDP18]”, the “activity … (FIG. 1)” value is “activity at the micromolar range or better” in experiment [1] (ENO1-deleted (D423), 5 days); “activity at the micromolar range or better” in experiment [3] (ENO1-rescued (D423 ENO1)); “activity at the micromolar range or better” in experiment [2] (ENO1-wildtype (LN319)). The IC50 in experiment [3] (setting [8]) amounted to 81.1 nM.

In the case of `CNP(=O)(OCOC(=O)C(C)(C)C)C1CCCN(O)C1=O` (stereo not drawn) [CDP23, (((1-hydroxy-2-oxopiperidin-3-yl)(methylamino)phosphoryl)oxy)methyl pivalate], in experiment [1], the “greater potency compared to CDP21” value is recorded as “more than 2.5 fold”. In addition, the IC50 is 40 nM in experiment [1] (120 h, D423 cells, 5 days incubation, crystal violet, read-out: IC50); 40 nM in experiment [1] (setting [4]); 790 nM in experiment [3] (Glioma cell, ENO1-rescued (D423 ENO1), read-out: IC50,D423 ENO1 (ENO1+/+)); 62.6 nM in experiment [3] (setting [7]); 1500 nM in experiment [2] (setting [5]). In experiment [1] (crystal violet cell proliferation assay, 5 days), the “selectivity for ENO1-deleted cells” value is on record as “selective for ENO1-deleted cells”.

As for “((((2,4-difluorobenzyi)amino)(1-hydrnxy-2-oxopiperidin-3-yl)phosphoryl)oxy)methyl pivalate [CDP14]”, the IC50 in experiment [3] (setting [8]) stood at 80.3 nM.

With `CC(C)(C)C(=O)OCOP(=O)(OCOC(=O)C(C)(C)C)C1CCCN(O)C1=O` (stereo not drawn) [POMHEX, (((1-hydroxy-2-oxopiperidin-3-yl)phosphoryl)bis(oxy))bis(methylene) bis(2,2-dimethylpropanoate), reference compound], the IC50 is 41.5 nM in experiment [3] (setting [6]); 217 nM in experiment [3] (Glioma cell, footnote, experiment with VCY34, read-out: IC50 in reference to respective POMHEX control); 17.3 nM in experiment [3] (setting [7]).

In the case of `CC(C)(C)C(=O)OCOP(=O)(NCc1ccccc1)C1CCCN(O)C1=O` (stereo not drawn) [FLM37, (((benzylamino)(1-hydroxy-2-oxopiperidin-3-yl)phosphoryl)oxy)methyl pivalate], the “activity … (FIG. 1)” value in experiment [1] (ENO1-deleted (D423), 5 days) is “activity at the micromolar range or better”; in experiment [3] (ENO1-rescued (D423 ENO1)) it was “activity at the micromolar range or better”; in experiment [2] (ENO1-wildtype (LN319)), “activity at the micromolar range or better”. Also, the IC50 in experiment [3] (setting [7]) turned out to be 244 nM.
